Measured values: EP4806891A1 (Kangbaida (Sichuan) Biotechnology Co., Ltd., priority 2023, dated 2025)

Target: T1, HEK-Blue-hTLR7 cells (Homo sapiens, UniProt Q9NYK1)
T1 construct: expressed in transfected cells; host or cells: HEK-Blue-hTLR7 cells (HEK293-derived reporter line)
T1 sequence (Q9NYK1 27-1049): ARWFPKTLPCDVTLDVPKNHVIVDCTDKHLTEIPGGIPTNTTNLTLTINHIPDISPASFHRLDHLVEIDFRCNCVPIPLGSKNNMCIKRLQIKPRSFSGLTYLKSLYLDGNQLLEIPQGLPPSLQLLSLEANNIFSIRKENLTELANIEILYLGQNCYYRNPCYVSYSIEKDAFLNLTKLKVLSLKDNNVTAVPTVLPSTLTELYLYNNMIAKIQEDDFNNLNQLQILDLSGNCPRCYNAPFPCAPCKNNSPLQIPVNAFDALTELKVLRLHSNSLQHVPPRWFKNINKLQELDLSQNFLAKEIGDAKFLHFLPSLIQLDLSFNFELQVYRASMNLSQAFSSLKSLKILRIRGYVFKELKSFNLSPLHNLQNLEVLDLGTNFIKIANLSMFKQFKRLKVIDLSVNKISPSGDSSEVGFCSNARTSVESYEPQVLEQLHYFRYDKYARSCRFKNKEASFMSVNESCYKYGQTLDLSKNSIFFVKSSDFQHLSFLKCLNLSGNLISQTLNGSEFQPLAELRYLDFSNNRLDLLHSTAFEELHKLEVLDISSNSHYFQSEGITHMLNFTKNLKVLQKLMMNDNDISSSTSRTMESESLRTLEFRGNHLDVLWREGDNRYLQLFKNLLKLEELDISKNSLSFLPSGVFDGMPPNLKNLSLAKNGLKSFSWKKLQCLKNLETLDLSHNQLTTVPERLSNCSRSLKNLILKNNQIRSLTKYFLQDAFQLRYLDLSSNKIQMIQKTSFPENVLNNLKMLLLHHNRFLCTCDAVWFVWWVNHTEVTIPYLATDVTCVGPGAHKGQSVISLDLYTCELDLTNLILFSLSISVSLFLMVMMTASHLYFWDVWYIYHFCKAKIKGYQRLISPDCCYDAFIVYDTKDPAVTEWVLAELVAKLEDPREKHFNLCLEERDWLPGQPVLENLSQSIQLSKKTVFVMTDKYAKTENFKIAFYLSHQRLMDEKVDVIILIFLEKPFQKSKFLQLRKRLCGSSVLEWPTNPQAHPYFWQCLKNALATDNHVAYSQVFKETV
Test: HEK-Blue-hTLR7 cell inhibition assay
Format: cell-based
Details: R848 0.8 µM, 16 h, OD 620 nm, read-out: TLR7 IC50
How it was run: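 Cells were pre-incubated 4 h, then co-treated 16 h at 37 °C with compound (10 doses, 0.5–10000 nM final) plus R848 (0.8 µM for TLR7, 3 µM for TLR8) or ODN2006 (1 µM, TLR9). Reporter OD620 gave inhibition relative to DMSO blank and agonist-only controls; IC50 came from curve fitting.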

IC50 | Compound
< 100 nM | CN1CCC(n2cnc([C@]34CN(c5ccc(C#N)c6ncccc56)C[C@@]3(C(F)(F)F)C4)n2)CC1 [Compound 23, 5-((1S,5R)-1-(1-(1-methylpiperidin-4-yl)-1H-1,2,4-triazol-3-yl)-5-(trifluoromethyl)-3-azabicyclo[3.1.0]hexan-3-yl)quinoline-8-carbonitrile]
< 1000 nM | N#Cc1ccc(N2C[C@]3(c4nnc(C#CCN5CCOCC5)o4)C[C@]3(C(F)(F)F)C2)c2cccnc12 [Compound 24, 5-((1S,5R)-1-(5-(3-morpholinoprop-1-yn-1-yl)-1,3,4-oxadiazol-2-yl)-5-(trifluoromethyl)-3-azabicyclo[3.1.0]hexan-3-yl)quinoline-8-carbonitrile]
< 100 nM | CN(C)CC#Cc1nnc([C@]23CN(c4ccc(C#N)c5ncccc45)C[C@@]2(C(F)(F)F)C3)o1 [Compound 25, 5-((1S,5R)-1-(5-(3-(dimethylamino)prop-1-yn-1-yl)-1,3,4-oxadiazol-2-yl)-5-(trifluoromethyl)-3-azabicyclo[3.1.0]hexan-3-yl)quinoline-8-carbonitrile]
< 100 nM | CC1(C)CC(Cc2nnc([C@]34CN(c5ccc(C#N)c6ncccc56)C[C@@]3(C(F)(F)F)C4)o2)CC(C)(C)N1 [Compound 26, 5-((1S,5R)-1-(5-((2,2,6,6-tetramethylpiperidin-4-yl)methyl)-1,3,4-oxadiazol-2-yl)-5-(trifluoromethyl)-3-azabicyclo[3.1.0]hexan-3-yl)quinoline-8-carbonitrile]
< 100 nM | N#Cc1ccc(N2C[C@]3(c4nnc(N5CCOCC5)o4)C[C@]3(C(F)(F)F)C2)c2cccnc12 [Compound 27, 5-((1S,5R)-1-(5-morpholino-1,3,4-oxadiazol-2-yl)-5-(trifluoromethyl)-3-azabicyclo[3.1.0]hexan-3-yl)quinoline-8-carbonitrile]
< 100 nM | CN1CC(Cc2nnc([C@]34CN(c5ccc(C#N)n6ncc(F)c56)C[C@@]3(C(F)(F)F)C4)o2)C1 [Compound 30, 3-fluoro-4-((1S,5R)-1-(5-((1-methylazetidin-3-yl)methyl)-1,3,4-oxadiazol-2-yl)-5-(trifluoromethyl)-3-azabicyclo[3.1.0]hexan-3-yl)pyrazolo[1,5-a]pyridine-7-carbonitrile]
< 100 nM | CN1CCC(Oc2nnc([C@]34CN(c5ccc(C#N)n6ncc(F)c56)C[C@@]3(C(F)(F)F)C4)o2)CC1 [Compound 31, 3-fluoro-4-((1S,5R)-1-(5-((1-methylpiperidin-4-yl)oxy)-1,3,4-oxadiazol-2-yl)-5-(trifluoromethyl)-3-azabicyclo[3.1.0]hexan-3-yl)pyrazolo[1,5-a]pyridine-7-carbonitrile]
< 100 nM | CN1CC(Cc2nnc([C@]34CN(c5ccc(C#N)c6ncccc56)C[C@@]3(C(F)(F)F)C4)o2)C1 [Compound 36, 5-((1S,5R)-1-(5-((1-methylazetidin-3-yl)methyl)-1,3,4-oxadiazol-2-yl)-5-(trifluoromethyl)-3-azabicyclo[3.1.0]hexan-3-yl)quinoline-8-carbonitrile]
< 100 nM | CN1CCC(Cc2nnc([C@]34CN(c5ccc(C#N)c6ncccc56)C[C@@]3(C(F)(F)F)C4)o2)CC1 [Compound 37, 5-((1S,5R)-1-(5-((1-methylpiperidin-4-yl)methyl)-1,3,4-oxadiazol-2-yl)-5-(trifluoromethyl)-3-azabicyclo[3.1.0]hexan-3-yl)quinoline-8-carbonitrile]
< 1000 nM | CN1CCC(Cc2nnc([C@]34CN(c5ccc(C#N)c6ncccc56)C[C@@]3(C(F)(F)F)C4)n2C)CC1 [Compound 38, 5-((1S,5R)-1-(4-methyl-5-((1-methylpiperidin-4-yl)methyl)-4H-1,2,4-triazol-3-yl)-5-(trifluoromethyl)-3-azabicyclo[3.1.0]hexan-3-yl)quinoline-8-carbonitrile]
< 1000 nM | N#Cc1ccc(N2C[C@]3(c4nnc(CN5CCOCC5)o4)C[C@]3(C(F)(F)F)C2)c2cccnc12 [Compound 40, 5-((1S,5R)-1-(5-(morpholinomethyl)-1,3,4-oxadiazol-2-yl)-5-(trifluoromethyl)-3-azabicyclo[3.1.0]hexan-3-yl)quinoline-8-carbonitrile]
< 100 nM | N#Cc1ccc(N2C[C@]3(c4nnc(CN5CCCC5)o4)C[C@]3(C(F)(F)F)C2)c2cccnc12 [Compound 41, 5-((1S,5R)-1-(5-(Pyrrolidin-1-ylmethyl)-1,3,4-oxadiazol-2-yl)-5-(trifluoromethyl)-3-azabicyclo[3.1.0]hexan-3-yl)quinoline-8-carbonitrile]
< 1000 nM | N#Cc1ccc(N2C[C@]3(c4nnc(CCN5CCOCC5)o4)C[C@]3(C(F)(F)F)C2)c2cccnc12 [Compound 43, 5-((1S,5R)-1-(5-(morpholinoethyl)-1,3,4-oxadiazol-2-yl)-5-(trifluoromethyl)-3-azabicyclo[3.1.0]hexan-3-yl)quinoline-8-carbonitrile]
< 1000 nM | Cn1c(CN2CCCC2)nnc1[C@]12CN(c3ccc(C#N)c4ncccc34)C[C@@]1(C(F)(F)F)C2 [Compound 44, 5-((1S,5R)-1-(4-methyl-5-(pyrrolidin-1-ylmethyl)-4H-1,2,4-triazol-3-yl)-5-(trifluoromethyl)-3-azabicyclo[3.1.0]hexan-3-yl)quinoline-8-carbonitrile]
< 100 nM | N#Cc1ccc(N2C[C@]3(c4nnc(C5CNCC(F)C5)o4)C[C@]3(C(F)(F)F)C2)c2cccnc12 (stereo partly drawn) [Compound 45, 5-((1R,5S)-1-((difluoro-3-methyl)-12-fluoraneyl)-5-(5-(5-fluoropiperidin-3-yl)-1,3,4-oxadiazol-2-yl)-3-azabicyclo[3.1.0]hexan-3-yl)quinoline-8-carbonitrile]

Compound | IC50
CN(C)[C@H]1CC[C@H](c2nnc([C@]34CN(c5ccc(C#N)c6ncccc56)C[C@@]3(C(F)(F)F)C4)o2)CC1 [Compound 21, 5-((1S,5R)-1-(5-((1R,4S)-4-(dimethylamino)cyclohexyl)-1,3,4-oxadiazol-2-yl)-5-(trifluoromethyl)-3-azabicyclo[3.1.0]hexan-3-yl)quinoline-8-carbonitrile] | < 100 nM
N#Cc1ccc(N2C[C@]3(c4nnc(C5=CCNC5)o4)C[C@]3(C(F)(F)F)C2)c2cccnc12 [Compound 22, 5-((1S,5R)-1-(5-(2,5-dihydro-1H-pyrrol-3-yl)-1,3,4-oxadiazol-2-yl)-5-(trifluoromethyl)-3-azabicyclo[3.1.0]hexan-3-yl)quinoline-8-carbonitrile] | < 100 nM
N#Cc1ccc(N2C[C@]3(c4nnc(C5(F)CNC5)o4)C[C@]3(C(F)(F)F)C2)c2cccnc12 [Compound 32, 5-((1S,5R)-1-(5-(3-Fluoroazetidin-3-yl)-1,3,4-oxadiazol-2-yl)-5-(trifluoromethyl)-3-azabicyclo[3.1.0]hexan-3-yl)quinoline-8-carbonitrile] | < 100 nM
N#Cc1ccc(N2C[C@]3(c4nnc(C5CCNCC5F)o4)C[C@]3(C(F)(F)F)C2)c2cccnc12 (stereo partly drawn) [Compound 33] | < 100 nM
CN1CCC(c2nnc([C@]34CN(c5ccc(C#N)c6ncccc56)C[C@@]3(C(F)(F)F)C4)o2)CC1=O (stereo partly drawn) [Compound 34] | < 100 nM
N#Cc1ccc(N2C[C@]3(c4nnc(CC5CNC5)o4)C[C@]3(C(F)(F)F)C2)c2cccnc12 [Compound 35, 5-((1S,5R)-1-(5-(azetidin-3-ylmethyl)-1,3,4-oxadiazol-2-yl)-5-(trifluoromethyl)-3-azabicyclo[3.1.0]hexan-3-yl)quinoline-8-carbonitrile] | < 1000 nM
CN1CC(c2nnc([C@]34CN(c5ccc(C#N)c6ncccc56)C[C@@]3(C(F)(F)F)C4)o2)C1 [Compound 39, 5-((1S,5R)-1-(5-(1-methylazetidin-3-yl)-1,3,4-oxadiazol-2-yl)-5-(trifluoromethyl)-3-azabicyclo[3.1.0]hexan-3-yl)quinoline-8-carbonitrile] | < 100 nM
CN(C)Cc1nnc([C@]23CN(c4ccc(C#N)c5ncccc45)C[C@@]2(C(F)(F)F)C3)o1 [Compound 42, 5-((1S,5R)-1-(5-((dimethylamino)methyl)-1,3,4-oxadiazol-2-yl)-5-(trifluoromethyl)-3-azabicyclo[3.1.0]hexan-3-yl)quinoline-8-carbonitrile] | < 100 nM
N#Cc1ccc(N2C[C@]3(c4nnc(C5(F)CCNC5)o4)C[C@]3(C(F)(F)F)C2)c2cccnc12 (stereo partly drawn) [Compound 46, 5-((1S,5R)-1-(5-(3-fluoropyrrolidin-3-yl)-1,3,4-oxadiazol-2-yl)-5-(trifluoromethyl)-3-azabicyclo[3.1.0]hexan-3-yl)quinoline-8-carbonitrile] | < 100 nM
